# Laboratory results published in patent publication US8076324B2, “Di(hetero)arylcyclohexane derivatives, their preparation, their use and pharmaceutical compositions comprising them” (Sanofi-Aventis, priority 2007, dated 2011).
# Counter-ions that a name gives are not always drawn.
# Tests used:
# [1] = molecular target: T1, myocardial ATP-sensitive potassium channel (SUR2A/Kir6.2) (UniProt Q61743+Q63563); experiment: Rubidium efflux test on HEK293 cells transfected with SUR2A and Kir6.2 (myocardial action); type: cell-based, SUR2A from the rat, Kir6.2 from the mouse; details: HEK293 cells transfected with SUR2A/Kir6.2; KATP channels opened by rilmakalim; 25 min incubation; read-out: IC50 values for the inhibition of the rubidium efflux
# T1 construct: expressed in transfected cells
# Procedure: 1) Action on the SUR2A/Kir6.2 potassium channel (myocardial action) The action of the compounds on the ion transport through the myocardial ATP-sensitive potassium channel (SUR2A/Kir6.2) was determined in the rubidium efflux test system described below on human embryonic kidney cells HEK293 which were transfected with the components SUR2A and Kir6.2 (cf. Weyermann et al., Naunyn-Schmiedeberg's Arch. Pharmacol. 369, 374-381 (2004)).
# The HEK293 cells were cultured at 37° C. in a humidified air atmosphere with 7% carbon dioxide in minimal essential medium with Earle's salts and L-glutamine (MEM, Gibco), which was supplemented with 10% fetal calf serum and zeozin (0.36 mg/ml) and geneticin (0.75 mg/ml). The transfection of the cells and the preparation of a cell line with stable expression of Kir6.2 from the mouse (accession number AF037313) and SUR2A from the rat (accession number D83598/L40624) were carried out as described in Giblin et al., J. Biol. Chem. 274, 22652-22659 (1999).
# 60 000 transfected cells per well were inoculated into a poly-D-lysine-coated 96-well microtiter plate (Greiner #650 201). After incubation for 24 h at 37° C., the cells were washed three times with buffer 1 (150 mM NaCl, 2 mM CaCl2, 0.8 mM NaH2PO4, 1 mM MgCl2, 5 mM glucose, 25 mM HEPES, pH=7.4). Subsequently, the buffer solution was replaced by 100 μl of rubidium loading buffer (buffer 1 with 5.4 mM RbCl) and the cells were incubated for a further 3 h at 37° C. The rubidium loading buffer was then removed by washing the cells three times with 200 μl each of potassium chloride wash buffer (buffer 1 with 5.4 mM KCl). After addition of the test substances (70 μl; dissolved in potassium chloride wash buffer with addition of DMSO), the KATP channels of the cells were opened by addition of 70 μl of rilmakalim (2 μM) (cf. Krause et al., Pflügers Arch. 429, 625-635 (1995)) and the cells were incubated at 37° C. for 25 min. Subsequently, the cell supernatants were transferred to a new 96-well microtiter plate and the cells were lyzed by addition of 200 μl of lysis buffer (buffer 1 with 1% Triton X-100). The concentrations of Rb^+ in the cell supernatant and in the cell lyzate were measured by means of atomic absorption spectroscopy using an Al 1200 apparatus (Aurora Instruments Ltd.).
# The Rb^+ efflux rate was calculated as [Rb^+SN]/[Rb^+total], wherein [Rb^+SN] is the amount of Rb^+ in the cell supernatant and [Rb^+total] is the sum of the amounts of Rb^+ in the cell supernatant and cell lyzate. IC50 values for the inhibition of the rubidium efflux were calculated with the aid of the Hill equation.
# T1 sequence (Q63563 whole entry): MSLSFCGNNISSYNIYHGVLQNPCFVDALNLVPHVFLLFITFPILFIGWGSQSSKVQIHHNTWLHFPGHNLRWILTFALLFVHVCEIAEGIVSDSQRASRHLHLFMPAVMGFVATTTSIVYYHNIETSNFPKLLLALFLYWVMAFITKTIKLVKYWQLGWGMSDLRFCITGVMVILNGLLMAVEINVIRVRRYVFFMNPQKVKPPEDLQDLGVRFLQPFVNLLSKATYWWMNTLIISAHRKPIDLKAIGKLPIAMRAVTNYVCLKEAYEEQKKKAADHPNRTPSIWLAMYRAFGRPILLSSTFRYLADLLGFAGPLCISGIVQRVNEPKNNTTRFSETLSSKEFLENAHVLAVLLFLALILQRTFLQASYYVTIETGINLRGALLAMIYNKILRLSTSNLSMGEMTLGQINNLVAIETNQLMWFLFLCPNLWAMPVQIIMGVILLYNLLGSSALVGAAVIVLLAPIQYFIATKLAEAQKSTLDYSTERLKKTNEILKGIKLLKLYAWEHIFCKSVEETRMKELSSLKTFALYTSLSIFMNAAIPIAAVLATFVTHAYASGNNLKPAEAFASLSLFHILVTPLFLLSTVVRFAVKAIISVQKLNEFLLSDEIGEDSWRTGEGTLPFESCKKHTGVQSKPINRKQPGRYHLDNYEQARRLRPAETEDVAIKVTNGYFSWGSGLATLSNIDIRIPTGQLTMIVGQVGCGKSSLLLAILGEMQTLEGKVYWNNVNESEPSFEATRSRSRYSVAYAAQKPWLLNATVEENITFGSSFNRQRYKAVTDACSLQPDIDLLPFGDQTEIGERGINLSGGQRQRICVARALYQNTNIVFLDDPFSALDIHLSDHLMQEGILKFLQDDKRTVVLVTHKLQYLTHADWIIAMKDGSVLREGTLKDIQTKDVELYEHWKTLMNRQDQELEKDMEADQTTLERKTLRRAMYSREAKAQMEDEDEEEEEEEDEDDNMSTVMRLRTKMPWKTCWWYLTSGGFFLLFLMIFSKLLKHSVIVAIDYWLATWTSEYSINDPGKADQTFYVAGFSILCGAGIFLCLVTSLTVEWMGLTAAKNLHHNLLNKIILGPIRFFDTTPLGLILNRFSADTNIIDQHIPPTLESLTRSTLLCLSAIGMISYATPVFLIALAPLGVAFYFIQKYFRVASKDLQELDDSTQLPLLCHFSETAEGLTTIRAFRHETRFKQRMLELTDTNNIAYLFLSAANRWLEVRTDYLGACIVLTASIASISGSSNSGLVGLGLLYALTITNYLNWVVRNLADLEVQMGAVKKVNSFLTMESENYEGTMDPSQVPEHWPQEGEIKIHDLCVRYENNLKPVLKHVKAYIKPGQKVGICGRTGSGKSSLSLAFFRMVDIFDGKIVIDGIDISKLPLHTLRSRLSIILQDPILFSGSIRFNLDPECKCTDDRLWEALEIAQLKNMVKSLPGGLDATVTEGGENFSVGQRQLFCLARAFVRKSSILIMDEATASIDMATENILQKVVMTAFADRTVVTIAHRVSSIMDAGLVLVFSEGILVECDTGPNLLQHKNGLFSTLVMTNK
# T1 sequence (Q61743 whole entry): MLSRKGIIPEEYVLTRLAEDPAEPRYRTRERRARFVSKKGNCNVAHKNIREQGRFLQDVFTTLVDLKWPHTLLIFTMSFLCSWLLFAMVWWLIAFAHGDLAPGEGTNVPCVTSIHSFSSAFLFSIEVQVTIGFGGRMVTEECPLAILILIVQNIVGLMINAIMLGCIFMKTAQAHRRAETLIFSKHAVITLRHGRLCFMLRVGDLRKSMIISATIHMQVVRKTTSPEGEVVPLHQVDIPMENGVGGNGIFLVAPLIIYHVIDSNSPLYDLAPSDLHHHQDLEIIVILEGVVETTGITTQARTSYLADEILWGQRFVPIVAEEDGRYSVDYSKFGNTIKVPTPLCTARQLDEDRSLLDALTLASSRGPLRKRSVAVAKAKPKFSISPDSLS
smiles,measurement,setting,value
O=C(O)[C@]1(c2ccc(F)cc2)CC[C@](OCC2CC2)(c2ccc(F)cn2)CC1,melting point,,211 °C
O=C(O)[C@]1(c2ccc(F)cc2)CC[C@](Oc2ncccn2)(c2ccc(F)cn2)CC1,melting point,,159 °C
O=C(O)[C@]1(c2ccc(F)cc2)CC[C@@](OCC2CC2)(c2cn(CC3CC3)c(-c3ccccc3)n2)CC1,melting point,,198 °C
CS(=O)(=O)c1cccc2c1nc([C@]1(OCC3CC3)CC[C@](C(=O)O)(c3ccccc3)CC1)n2CC1CC1,melting point,,227 °C
Cc1nc([C@]2(OCC3CC3)CC[C@](C(=O)O)(c3ccccc3)CC2)n(CC2CC2)c1S(C)(=O)=O (as salt: sulfonic acid salt),melting point,,206 °C
"O=C(O)[C@]1(c2ccc(F)cc2)CC[C@](Oc2ccccn2)(c2ccc(F)cn2)CC1 [Example 339, Trans-1-(4-Fluorophenyl)-4-(5-fluoropyridin-2-yl)-4-(pyridin-2-yloxy)cyclohexanecarboxylic Acid]",melting point,,> 300 °C
same,IC50,[1],< 1000 nM
"O=C(O)[C@]1(c2ccc(F)cc2)CC[C@](Oc2ccccc2)(c2ccc(F)cn2)CC1 [Example 345, Trans-1-(4-Fluorophenyl)-4-(5-fluoropyridin-2-yl)-4-phenoxycyclohexanecarboxylic Acid]",melting point,,237 °C
same,IC50,[1],< 1000 nM
"Cc1c(Br)nc([C@]2(OCC3CC3)CC[C@](C(=O)O)(c3ccc(F)cc3)CC2)n1CC1CC1 [Example 350, Cis 4-(4-Bromo-1-cyclopropylmethyl-5-methyl-1H-imidazol-2-yl)-4-cyclopropylmethoxy-1-(4-fluorophenyl)cyclohexanecarboxylic Acid]",melting point,,210 °C
same,IC50,[1],< 1000 nM
"Cc1nc([C@]2(OCC3CC3)CC[C@](C(=O)O)(c3ccc(F)cc3)CC2)n(CC2CC2)c1Br [Example 354, Cis-4-(5-Bromo-1-cyclopropylmethyl-4-methyl-1H-imidazol-2-yl)-4-cyclopropylmethoxy-1-(4-fluorophenyl)cyclohexanecarboxylic Acid]",melting point,,190 °C
same,IC50,[1],< 1000 nM
"Cc1cnc([C@]2(OCC3CC3)CC[C@](C(=O)O)(c3ccc(F)cc3)CC2)n1CC1CC1 [Example 357, Cis-4-Cyclopropylmethoxy-4-(1-cyclopropylmethyl-5-methyl-1H-imidazol-2-yl)-1-(4-fluorophenyl)cyclohexanecarboxylic Acid]",melting point,,187 °C
same,IC50,[1],< 1000 nM
"Cc1c(Cl)nc([C@]2(OCC3CC3)CC[C@](C(=O)O)(c3ccc(F)cc3)CC2)n1CC1CC1 [Example 360, Cis-4-(4-Chloro-1-cyclopropylmethyl-5-methyl-1H-imidazol-2-yl)-4-cyclopropylmethoxy-1-(4-fluorophenyl)cyclohexanecarboxylic Acid]",melting point,,185 °C
same,IC50,[1],< 1000 nM
"Cc1nc([C@]2(OCC3CC3)CC[C@](C(=O)O)(c3ccc(F)cc3)CC2)n(CC2CC2)c1Cl [Example 363, Cis-4-(5-Chloro-1-cyclopropylmethyl-4-methyl-1H-imidazol-2-yl)-4-cyclopropylmethoxy-1-(4-fluorophenyl)cyclohexanecarboxylic Acid]",melting point,,184 °C
same,IC50,[1],< 1000 nM
"Cc1nc([C@]2(Oc3ccccc3)CC[C@](C(=O)O)(c3ccccc3)CC2)n(CC2CC2)c1Cl [Example 400, Cis 4-(5-Chloro-1-cyclopropylmethyl-4-methyl-1H-imidazol-2-yl)-4-phenoxy-1-phenylcyclohexanecarboxylic Acid]",melting point,,170 °C
same,IC50,[1],< 1000 nM
"Cc1c(Br)nc([C@]2(Oc3ccccc3)CC[C@](C(=O)O)(c3ccc(F)cc3)CC2)n1CC1CC1 [Example 403, Cis-4-(4-Bromo-1-cyclopropylmethyl-5-methyl-1H-imidazol-2-yl)-4-phenoxy-1-(4-fluorophenyl)cyclohexanecarboxylic Acid]",melting point,,158 °C
same,IC50,[1],< 1000 nM
"Cc1c(C#N)nc([C@]2(OCC3CC3)CC[C@](C(=O)O)(c3ccc(F)cc3)CC2)n1CC1CC1 [Example 418, Cis-4-(4-Cyano-1-cyclopropylmethyl-5-methyl-1H-imidazol-2-yl)-4-cyclopropylmethoxy-1-(4-fluorophenyl)cyclohexanecarboxylic Acid]",melting point,,245 °C
same,IC50,[1],< 1000 nM
"Cc1nc([C@]2(OCC3CC3)CC[C@](C(=O)O)(c3ccccc3)CC2)n(CC2CC2)c1C#N [Example 419, Cis-4-(5-Cyano-1-cyclopropylmethyl-4-methyl-1H-imidazol-2-yl)-4-cyclopropylmethoxy-1-phenylcyclohexanecarboxylic Acid]",melting point,,228 °C
same,IC50,[1],< 1000 nM
O=C(O)[C@]1(c2ccccc2)CC[C@](Oc2ccccc2)(c2nc(-c3ccccc3)nn2CC2CC2)CC1 [Example 466],IC50,[1],< 1000 nM
CS(=O)(=O)c1ccc(-c2nc([C@]3(Oc4ccccc4)CC[C@@](C(=O)O)(c4ccccc4)CC3)n(CC3CC3)n2)cc1 [Example 467],IC50,[1],< 1000 nM
"Cc1c(F)cc(S(C)(=O)=O)cc1[C@]1(OCC2CC2)CC[C@](C(=O)O)(c2ccccc2)CC1 [Example 480, Cis-4-Cyclopropylmethoxy-4-(3-fluoro-2-methyl-5-methanesulfonylphenyl)-1-phenylcyclohexanecarboxylic Acid]",IC50,[1],< 1000 nM
"Cc1c(F)cc([C@]2(OCC3CC3)CC[C@](C(=O)O)(c3ccccc3)CC2)cc1S(C)(=O)=O [Example 482, Cis-4-Cyclopropylmethoxy-4-(3-fluoro-5-methanesulfonyl-4-methylphenyl)-1-phenylcyclohexanecarboxylic Acid]",IC50,[1],< 1000 nM
"O=C(O)[C@]1(c2ccccc2)CC[C@@](OCC2CC2)(c2cc(-c3ccccc3)ccn2)CC1 [Example 485, Cis-4-Cyclopropylmethoxy-1-phenyl-4-(4-phenylpyridin-2-yl)cyclohexanecarboxylic Acid]",IC50,[1],< 1000 nM
"O=C(O)[C@]1(c2ccccc2)CC[C@](OCC2CC2)(c2cc(-c3ccccc3)ccn2)CC1 [Example 486, Trans-4-Cyclopropylmethoxy-1-phenyl-4-(4-phenylpyridin-2-yl)cyclohexanecarboxylic Acid]",IC50,[1],< 1000 nM
"O=C(O)[C@]1(c2ccccc2)CC[C@@](OCC2CC2)(c2ccnc(-c3ccccc3)c2)CC1 [Example 488, Cis-4-Cyclopropylmethoxy-1-phenyl-4-(2-phenylpyridin-4-yl)cyclohexanecarboxylic Acid]",IC50,[1],< 1000 nM
"O=C(O)[C@]1(c2ccccc2)CC[C@](OCC2CC2)(c2ccnc(-c3ccccc3)c2)CC1 [Example 489, Trans-4-Cyclopropylmethoxy-1-phenyl-4-(2-phenylpyridin-4-yl)cyclohexanecarboxylic Acid]",IC50,[1],< 1000 nM
"O=C(O)[C@]1(c2ccccc2)CC[C@@](OCC2CC2)(c2nccn2CC2CC2)CC1 [Example 492, Cis-Cyclopropylmethoxy-4-(1-cyclopropylmethyl-1H-imidazol-2-yl)-1-phenylcyclohexanecarboxylic Acid]",IC50,[1],< 1000 nM
"O=C(O)[C@]1(c2ccccc2)CC[C@](OCC2CC2)(c2nccn2CC2CC2)CC1 [Example 493, Trans-Cyclopropylmethoxy-4-(1-cyclopropylmethyl-1H-imidazol-2-yl)-1-phenylcyclohexanecarboxylic Acid]",IC50,[1],< 1000 nM
"C=C(CO[C@]1(c2nccn2CC2CC2)CC[C@@](C(=O)O)(c2ccccc2)CC1)c1ccccc1 [Example 495, Cis-4-(1-Cyclopropylmethyl-1H-imidazol-2-yl)-1-phenyl-4-(2-phenylallyloxy)cyclohexanecarboxylic Acid]",IC50,[1],< 1000 nM
"O=C(O)[C@]1(c2ccccc2)CC[C@@](OCC2(c3ccccc3)COC2)(c2nccn2CC2CC2)CC1 [Example 497, 4-(1-Cyclopropylmethyl-1H-imidazol-2-yl)-1-phenyl-4-(3-phenyloxetan-3-ylmethoxy)cyclohexanecarboxylic Acid]",IC50,[1],< 1000 nM
"O=C(O)[C@]1(c2ccccc2)CC[C@@](OCC2(c3ccccc3)COC2)(c2ccc(F)cc2)CC1 [Example 499, 4-(4-Fluorophenyl)-1-phenyl-4-(3-phenyloxetan-3-ylmethoxy)cyclohexanecarboxylic Acid]",IC50,[1],< 1000 nM
